The source of these data is US12648979B2, “Compositions comprising sulforaphane or a sulforaphane precursor and Moringa plant components” (Nutramax Laboratories, Inc., priority 2021, dated 2026).

The test system of assay [1] is Epstein-Barr virus-early antigen. The settings on record: in vitro; cited from earlier work.
The test system of assay [2] is NAD(P)H:quinone oxidoreductase 1 (NQO1) gene expression. In words: NQO1 gene expression in RAW 264.7 macrophage cell line, quantitative RT-PCR (Examples 6, 7, 11). To be noted: 0.5 μM SFN; 24 hours. In kind it is cell-based. The method, then:
In the study, the macrophage cell line RAW 264.7 was treated with dimethyl sulfoxide (DMSO) (vehicle control), sulforaphane (SFN), a maitake mushroom extract having about 20% beta-glucan content (Maitake), or the combination of sulforaphane and the maitake mushroom extract, for 24 hours. In particular, the cells were treated with one of the following: (i) DMSO (vehicle control), (ii) 0.5 μM SFN, (iii) 250 μg/mL Maitake, (iv) 500 μg/mL Maitake, (v) 750 μg/mL Maitake, (vi) 0.5 μM SFN and 250 μg/mL Maitake, (vii) 0.5 μM SFN and 500 μg/mL Maitake, and (viii) 0.5 μM SFN and 750 μg/mL Maitake. The gene expression of NQO-1 was analyzed via quantitative RT-PCR. The results, which are depicted in FIG. 2, show the following:
In the study, the macrophage cell line RAW 264.7 was treated with DMSO (vehicle control), sulforaphane (SFN), a shiitake mushroom extract having at least 20% alpha-glucan content (Shiitake), or the combination of sulforaphane and the shiitake mushroom extract, for 24 hours. […] The gene expression of NQO1 was analyzed via quantitative RT-PCR. […]
In the study, the macrophage cell line RAW 264.7 was treated with sulforaphane (SFN), Moringa plant components (MOR), or a combination of SFN and MOR, for 24 hours. […] The gene expression of NQO1 was analyzed via quantitative RT-PCR. […]

Assay [3] relates to NAD(P)H:quinone oxidoreductase (NQO1). To be noted: oral administration; cited from earlier work.
In assay [4] the test system is heme oxygenase-1 (HO-1). The settings on record: oral administration; cited from earlier work.
In assay [5] the test system is mammary tumors. The settings on record: rat, in vivo; cited from earlier work.
The test system of assay [6] is broccoli sprout-derived myrosinase. Briefly: Consumption of glucoraphanin by myrosinase as a function of ascorbic acid concentration (Example 3). In kind it is biochemical. The settings on record: 600 μmoles/Liter ascorbic acid. How it is done: A […] Interaction Chromatographic (HILIC) method was developed, comprising the following conditions: • Column: Waters BEH Amide, 1.7-μm particle size; 2.1 mm×100 mm; • Mobile Phase: 20% 10 mM Ammonium Acetate, pH 5.0; 80% acetonitrile; • Separation mode: isocratic; • Column Temperature: 70° C.; • Flow Rate: 0.7 mL/min.
About 250 mg of broccoli seed extract containing about 12% (w/w) glucoraphanin were subjected to hydrolysis by a fixed concentration of broccoli sprout-derived myrosinase in the presence of variable concentration of ascorbic acid, ranging from 0 to 600 μmoles/Liter. The reaction mixtures were thermostated at 38° C.; aliquots were withdrawn every 15 minutes for 60 minutes, and concentration of glucoraphanin determined chromatographically. The rate of glucoraphanin consumption was interpreted as the rate its conversion to sulforaphane. Graphical representation of glucoraphanin content reduction as a function of increasing ascorbic acid concentration results in a series of linear plots; the slopes of the linear regression lines reflect the rate of glucoraphanin consumption, in pmoles/minute. It is apparent that in the presence of 600 μmoles/Liter concentration of ascorbic acid, the reaction rate increased 13-fold relative to that which proceeded in the absence of modulatory effects of ascorbic acid.

Assay [7] relates to myrosinase. Briefly: Equimolar conversion of glucoraphanin to sulforaphane by myrosinase, HPLC (Example 4). Type of assay: biochemical, broccoli. The settings on record: PART 2, broccoli seed extract 250 mg. How it is done:
A two-part experiment was conducted to further elucidate the role of ascorbic acid in modulating myrosinase activity. All solutions were prepared in 20 mM Tris-buffered saline, at pH 7.5, previously identified as an optimal for myrosinase activity; each sample tube had 100 mg of freeze-dried broccoli powder accurately weighed in as a source of myrosinase. Experiment was conducted at 38° C. for 2 hours, with sample aliquots removed in 30-minute increments, and both glucoraphanin and sulforaphane content assessed by HPLC. […] A control sample contained no ascorbic acid, and the enzymatic conversion proceeded unassisted by a co-factor. PART 1. In the presence of the fixed concentration of ascorbic acid, 1 mmol/Liter, an increasing amount of broccoli seed extract (about 12% glucoraphanin, w/w) was added, ranging from 250 mg to 500 mg. PART 2. While keeping the amount of broccoli seed extract fixed at 250 mg, the concentration of ascorbic acid was varied from 0.4 mmol/Liter to 3.8 mmol/Liter.

Assay [8] relates to myrosinase. In words: Conversion of glucoraphanin to sulforaphane in Simulated Intestinal Fluid (Example 5). In kind it is biochemical, broccoli. To be noted: 38° C., ascorbic acid 0.25 to 1.00 mmol/Liter, FIG. 1. The method, then:
Simulated Intestinal Fluid (SIF) powder, a commercially supplied concentrate closely approximating the human intestinal content in terms of composition, pH and ionic strength, was used. The experiment utilized a USP Dissolution Apparatus 2 (paddles), where into six dissolution vessels 500 mL of Simulated Intestinal Fluid was dispensed, along with 150 mg of freeze-dried broccoli sprout powder as a source of myrosinase. […] Aliquots were withdrawn every 15 minutes, and assayed for sulforaphane.

As to `CCCCCCCCC=CCCCCCCCC(=O)OCC1OC(OC2CCC3(C)C(=CCC4C3CCC3(C)C(C(C)CCC(CC)C(C)C)CCC43)C2)C(O)C(O)C1O` [3-O-(6′-O-oleoyl-β-D-glucopyranosyl)-β-sitosterol], the “inhibitory effects on Epstein-Barr virus-early antigen” value (from here on “inhibitory effects”) in assay [1] was “significant inhibitory effects”.

In the case of `C[C@@H]1O[C@@H](Oc2ccc(CN=C=S)cc2)[C@H](O)[C@H](O)[C@H]1O` [4(α-L-rhamnosyloxy)-benzyl isothiocyanate], in assay [1], the “inhibitory effects” value is “significant inhibitory effects”.

For the compound `CCOC(=O)NCc1ccc(O[C@@H]2O[C@@H](C)[C@H](O)[C@@H](O)[C@H]2O)cc1` [O-Ethyl-4-(α-L-rhamnosyloxy)benzyl carbamate], in assay [1], the “inhibitory effects” value is given as “significant inhibitory effects”.

Consider `C[S+]([O-])CCCCN=C=S` (centres unmarked) [SFN, 1-isothiocyanato-4-methylsulfinylbutane], for which, in assay [2], the “Fold increase in NQO-1 gene expression” value worked out at 12.96. Moreover, the “increase in NQO1 enzymatic activity in the mammary epithelium” value in assay [3] is recorded as 3 fold. For the same compound, the “elevated immunostaining of HO-1 in the mammary epithelium” value in assay [4] is 4 fold. Besides, the “blocking the formation of mammary tumors” value in assay [5] was “effective in blocking the formation of mammary tumors”.

For `O=C1O[C@H]([C@@H](O)CO)C(O)=C1O` [ascorbic acid], in assay [6], the “increase of reaction rate relative to absence of ascorbic acid” value stood at 13 fold. Also, in assay [7], the “ascorbic acid concentration up to which myrosinase-promoted conversion increases linearly, then levels off” value was “about 2 mmol/L”. The “yield of sulforaphane versus ascorbic acid concentration” value in assay [8] was “direct correlation between larger yield of sulforaphane and higher concentrations of ascorbic acid”.

In the case of `CCOC(=S)NCc1ccc(OC2OC(C)C(O)C(O)C2O)cc1` (centres unmarked) [niazimicin], in assay [1], the “inhibitory effects” value was “significant inhibitory effects”.
